Laboratory results reported in the supplement of paper PMC10307832.

Tests used:
Assay in all cases: relative viability (nuclei count vs DMSO), 5 days (fraction); higher = more cells survive
[1] = compound: Cc1ccc2nc(NCCN)c3ncc(C)n3c2c1 + O=C(c1cc(Cc2n[nH]c(=O)c3ccccc23)ccc1F)N1CCN(C(=O)C2CC2)CC1 [Olaparib] (partner 8 µM)
Outline: (§1)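 Medians of duplicate plates are given as relative viability. That measure is the nuclei count in treated wells divided by the count in vehicle wells. Counts were taken on 4× images of lung cancer cell lines in 1536-well plates, 5 days after pin-tool dosing the day after seeding with one drug alone or a fixed anchor-drug dose plus five library-drug doses (not always all listed) in √10 steps.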

[2] = compound: Cc1ccc2nc(NCCN)c3ncc(C)n3c2c1 + Nc1nc2[nH]cc(CCc3ccc(C(=O)N[C@@H](CCC(=O)O)C(=O)O)cc3)c2c(=O)[nH]1 [Pemetrexed] (partner 0.2 µM)
Outline: as §1

[3] = compound: O=C(/C=C/c1ccccc1)NC(NC(=S)Nc1cccc2cccnc12)C(Cl)(Cl)Cl [Salubrinal] + O=C(CCCCCCC(=O)Nc1ccccc1)NO [Vorinostat] (partner 1 µM)
Outline: as §1

[4] = compound: O=C(/C=C/c1ccccc1)NC(NC(=S)Nc1cccc2cccnc12)C(Cl)(Cl)Cl [Salubrinal] + CS(=O)(=O)N1CCN(Cc2cc3nc(-c4cccc5[nH]ncc45)nc(N4CCOCC4)c3s2)CC1 [Pictilisib] (partner 1 µM)
Outline: as §1

Cell Line	relative viability ([1]; first compound 0.04 µM)	relative viability ([1]; first compound 0.1265 µM)	relative viability ([1]; first compound 0.4 µM)	relative viability ([1]; first compound 1.265 µM)	relative viability ([1]; first compound 4 µM)	relative viability ([2]; first compound 0.04 µM)	relative viability ([2]; first compound 0.1265 µM)	relative viability ([2]; first compound 0.4 µM)	relative viability ([2]; first compound 1.265 µM)	relative viability ([2]; first compound 4 µM)	relative viability ([3]; first compound 0.08 µM)	relative viability ([3]; first compound 0.253 µM)	relative viability ([3]; first compound 0.8 µM)	relative viability ([3]; first compound 2.53 µM)	relative viability ([3]; first compound 8 µM)	relative viability ([4]; first compound 0.08 µM)	relative viability ([4]; first compound 0.253 µM)	relative viability ([4]; first compound 0.8 µM)	relative viability ([4]; first compound 2.53 µM)	relative viability ([4]; first compound 8 µM)
201T	0.945	0.839	0.804	0.829	0.823	0.372	0.321	0.323	0.276	0.343	1.08	0.922	1.03	1.03	0.933	0.591	0.636	0.778	0.706	0.678
A549	0.409	0.406	0.333	0.317	0.301	–	–	–	–	–	–	–	–	–	–	0.585	0.419	0.517	0.436	0.35
A-427	0.723	0.672	0.693	0.711	0.63	0.979	0.939	1.02	0.95	0.948	0.859	0.905	0.896	0.814	0.827	0.805	0.748	0.853	0.785	0.759
ABC-1	0.781	0.785	0.639	0.691	1.04	–	–	–	–	–	1.14	0.947	0.971	1.34	1.11	0.705	0.92	0.812	0.727	0.588
BEN	1.17	1.18	1.07	1.04	1.24	0.978	0.894	0.817	0.712	0.801	0.52	0.543	0.645	0.507	0.571	0.567	0.606	0.746	0.643	0.549
CAL-12T	0.77	0.738	0.827	0.804	0.625	1.42	1.13	1.15	1.04	1.03	0.903	0.676	0.989	0.681	0.672	0.392	0.488	0.438	0.734	0.528
COR-L23	0.348	0.351	0.397	0.321	0.328	0.191	0.191	0.204	0.218	0.208	0.471	0.419	0.534	0.323	0.356	0.946	0.666	0.899	0.676	0.432
COR-L 105	0.656	0.883	0.665	0.533	0.642	1.19	1.21	0.996	1.23	1.11	1.08	0.816	0.843	0.797	0.747	0.419	0.358	0.406	0.349	0.421
Calu-6	0.574	0.601	0.6	0.578	0.367	–	–	–	–	–	–	–	–	–	–	1.11	0.817	0.925	0.871	0.792
ChaGo-K-1	0.411	0.458	0.412	0.426	0.402	0.248	0.267	0.256	0.252	0.253	0.834	0.683	0.901	0.814	0.77	0.73	0.625	1.21	1.01	0.827
EBC-1	0.679	0.681	0.72	0.602	0.546	–	–	–	–	–	–	–	–	–	–	0.332	0.373	0.4	0.273	0.248
EKVX	0.941	0.82	0.775	0.706	0.737	0.394	0.404	0.387	0.36	0.313	0.769	0.606	0.863	0.668	0.665	0.508	0.494	0.525	0.461	0.482
EMC-BAC-2	0.519	0.502	0.507	0.456	0.488	0.463	0.43	0.4	0.448	0.496	0.388	0.477	0.798	0.514	0.494	0.607	0.454	0.574	0.583	0.565
EPLC-272H	0.869	0.814	0.98	0.686	0.778	0.278	0.358	0.488	0.281	0.414	0.464	–	0.539	0.427	0.336	0.293	0.282	0.355	0.33	0.24
H3255	0.561	0.482	0.516	0.59	0.47	0.573	0.568	0.536	0.557	0.525	0.671	0.81	0.945	0.765	0.76	0.561	0.535	0.576	0.456	0.487
HARA	0.73	0.782	0.791	0.759	0.365	0.217	0.237	0.226	0.236	0.234	0.617	0.631	0.597	0.478	0.475	0.524	0.328	0.558	0.328	0.375
HCC-15	0.648	0.752	0.7	0.75	0.622	0.233	0.203	0.223	0.252	0.236	0.952	0.784	0.866	0.826	0.804	0.77	0.643	0.837	0.728	0.759
HCC-44	0.999	0.96	0.955	1	0.977	0.679	0.704	0.643	0.594	0.709	1.04	1.1	1.13	1	1.04	0.592	0.591	0.767	0.649	0.493
